Where two headings read alike, the source gives them in different places.
Columns and labels:
[1] = system: Gram-positive and Gram-negative bacteria; settings: cited from earlier work
[2] = system: murine tumor models (HeLa S3, sarcoma180, B-16, Colon 26, leukemia P388); settings: cited from earlier work
[3] = cited from earlier work; for t1/2: aqueous condition
[4] = system: DNA; settings: in the presence of thiol agents as cofactors; cited from earlier work
[5] = system: fungi; settings: cited from earlier work
[6] = system: S. atroolivaceus; assay: Antibiotic sensitivity (growth inhibition) of S. atroolivaceus; format: cell-based, Streptomyces atroolivaceus; settings: for complete inhibition of growth: concentration giving complete inhibition of growth of S. atroolivaceus; for sensitivity of S. atroolivaceus: result in words
Protocol: S. atroolivaceus grows very well at 30° C.; it doesn't grow at temperature beyond 35° C. […] Thus, E. coli-Streptornyces shuttle vectors pOJ260 (suicide vector, Am^R) and pKC1139 (self-replicating vector, Am^R) were chosen to make the gene-disruption constructs pYC12 and pYC20, respectively. The concentration of antibiotic (Am) for selection of transformants/exconjugates is 50 μg/ml.

SMILES | antimicrobial activity [1] | activity against drug-resistant tumors ([2]; murine models inoculated with tumors resistant to cisplatin, doxorubicin, mitomycin or cyclophosphamide) | antitumor activity ([2]; murine tumor models in vivo, including HeLa S3, sarcoma180, B-16, Colon 26, leukemia P388) | t1/2 ([3]; pH 6) [h] | t1/2 ([3]; pH 7) [h] | t1/2 ([3]; pH 8) [h] | t1/2 in the presence of a thiol ([3]; in the presence of a thiol, compared with aqueous condition alone) | DNA cleavage [4] | antimicrobial activity [5] | complete inhibition of growth [6] [µg/mL] | sensitivity of S. atroolivaceus [6]
C/C1=C\[C@@H](O)C(=O)/C=C/C=C\c2csc(n2)[C@@H](C)NC(=O)C[C@@]2(CC1)[S+]([O-])SC(=O)[C@]2(C)O (stereo partly shown) [Lnm, Leinamycin] | broad spectrum of antimicrobial activity | active | potent antitumor activity | > 20 | 8 | < 1 | even shorter t1/2 | single-strand scission of DNA | not against fungi | – | –
CN[C@@H]1[C@@H](O[C@H]2O[C@H](CO)[C@@H](N)[C@H](O)[C@H]2O)OC2C[C@@H](N)[C@@H](O[C@H]3[C@H](O)[C@@H](O)[C@H](N)C[C@@H]3N)OC2[C@@H]1O (stereo partly shown) [apramycin] | – | – | – | – | – | – | – | – | – | 10 | sensitive
C=C(NC(=O)C(=C)NC(=O)c1csc(C2=N[C@@H]3c4csc(n4)[C@H]4NC(=O)c5csc(n5)[C@H]([C@](C)(O)[C@@H](C)O)NC(=O)[C@H]5CSC(=N5)/C(=C/C)NC(=O)[C@H]([C@@H](C)O)NC(=O)c5csc(n5)[C@]3(CC2)NC(=O)[C@H](C)NC(=O)C(=C)NC(=O)[C@H](C)NC(=O)[C@H]([C@@H](C)CC)N[C@@H]2C=Cc3c([C@H](C)O)cc(nc3[C@H]2O)C(=O)O[C@@H]4C)n1)C(N)=O [thiostrepton] | – | – | – | – | – | – | – | – | – | 3 | sensitive
